{
  "source": "patent US10045961B2",
  "about": "“Use of sting agonists to treat chronic hepatitis B virus infection” (DREXEL UNIVERSITY, priority 2013, dated 2018)",
  "key": {"[1]": {"test_system": "HBV DNA replication in AML12HBV10 cells", "assay": "Direct treatment of AML12HBV10 cells, cytoplasmic HBV core DNA by Southern blot", "details": "for HBV DNA replication, direct treatment: AML12HBV10 cells treated directly for 2 days, cytoplasmic HBV core DNA; for HBV DNA replication, cytokine treatment: AML12HBV10 cells treated for 4 days", "text": "AML12HBV10, an immortalized murine hepatocyte (AML12)-derived cell line supporting high level of HBV replication in a tetracycline (tet)-inducible manner, was maintained as described in Xu C, et al. Interferons accelerate decay of replication-competent nucleocapsids of hepatitis B virus.\nHBV core DNA extraction from AML12HBV10 cells as well as analyses by Southern blot hybridization and real-time PCR assays were as described previously in Xu C, et al. Interferons accelerate decay of replication-competent nucleocapsids of hepatitis B virus. […] Total cellular RNA was extracted using TRIzol reagent (Invitrogen). HBV RNA was analyzed by Northern blot hybridization with an α-^32P-UTP-labeled full-length minus-stranded RNA probe. HBV capsid and capsid associated viral DNA was analyzed by a native agarose gel electrophoresis followed by transfer to a nitrocellulose membrane. HBV capsids were detected by probing the membrane with an antibody against HBV core protein followed by visualizing with LI-COR Odyssey system. Capsid-associated DNA was detected by hybridization with radioactively labeled HBV riboprobe.\n(§4) The assay system was first validated with known TLR agonists. […] Twenty-four hours later, the cells were treated with the indicated concentrations of TLR agonists (direct treatment) (FIG. 1B). […] Cytoplasmic HBV core DNA was analyzed by Southern blot hybridization two days post treatment.\n(§5) AMLHBV10 cells, grown in Dulbecco's Modification of Eagle's Medium (DMEM)/F12 medium with 1 μg/ml of tetracycline were seeded in 12-well plate at density of 1×10^5 cell/well for 1 day in absence of tetracycline to release HBV replication. […] HBV core DNA was extracted from AML12HBV10 cells 2 days post treatment, and detected by Southern blot assay.\nCytoplasmic HBV core DNA was analyzed by Southern blot hybridization. NT controls were as described in FIG. 1B (FIG. 3B). […] AML12HBV10 cells treated with the indicated concentrations of mouse alpha IFN (mIFN-α) for 2 days served as positive controls. Cytoplasmic HBV core DNA was analyzed by Southern blot hybridization (FIG. 3D)."}, "[2]": {"test_system": "HBV DNA replication in AML12HBV10 cells", "assay": "Indirect treatment: conditioned media from treated RAW264.7 macrophages applied to AML12HBV10 cells, HBV core DNA by Southern blot", "details": "AML12HBV10 cells treated 2 days with 50% conditioned media from RAW264.7 cells treated 12 h", "quoted_text": "as §4, §5\nIntracellular HBV RNA was determined by Northern blot (ribosomal RNA served as loading control). HBV core protein was determined by Western blot assay using antibody against carboxyl terminal 14 amino acid of HBV core protein (β-actin served as loading control). HBV nucleocapsids were examined by a particle gel assay to detect both the intact nucleocapsids and capsid-associated HBV DNA. Encapsidated HBV (core DNA) replication intermediates (RC, DSL and SS) were determined by Southern blot assay.\nUsing the assay system described above, 75 flavonoids in MicroSource compound collection (MicroSource Discovery Systems, Inc.) were tested again. […] Cytoplasmic HBV core DNA was analyzed by Southern blot hybridization. […] AML12HBV10 cells treated with the indicated concentrations of mouse alpha IFN (mIFN-α) for 2 days served as positive controls. Cytoplasmic HBV core DNA was analyzed by Southern blot hybridization (FIG. 3D)."}, "[3]": {"test_system": "HBV capsids", "assay": "HBV core protein, capsids and capsid-associated DNA in AML12HBV10 cells after indirect treatment", "format": "cell-based, hepatitis B virus", "details": "2 days; for amount of HBV capsid protein: Western blot", "experimental": "HBV core DNA extraction from AML12HBV10 cells as well as analyses by Southern blot hybridization and real-time PCR assays were as described previously in Xu C, et al. Interferons accelerate decay of replication-competent nucleocapsids of hepatitis B virus. J Virol 2010; 84:9332-40, and Campagna M R, et al. Sulfamoylbenzamide Derivatives Inhibit the Assembly of Hepatitis B Virus Nucleocapsids. J Virol 2013. Total cellular RNA was extracted using TRIzol reagent (Invitrogen). HBV RNA was analyzed by Northern blot hybridization with an α-^32P-UTP-labeled full-length minus-stranded RNA probe. HBV capsid and capsid associated viral DNA was analyzed by a native agarose gel electrophoresis followed by transfer to a nitrocellulose membrane. HBV capsids were detected by probing the membrane with an antibody against HBV core protein followed by visualizing with LI-COR Odyssey system. Capsid-associated DNA was detected by hybridization with radioactively labeled HBV riboprobe.\nIn order to map the HBV replication step(s) being inhibited by DMXAA-induced antiviral response in macrophages, AML12HBV10 cells were treated with conditioned media harvested from TLR agonist- or DMXAA-treated RAW264.7 cells. […]. The AML12HBV10 cells were harvested 2 days after treatment for the following analysis: (FIG. 4A) Intracellular HBV RNA was determined by Northern blot (pgRNA, pre-genomic RNA, envRNAs, viral mRNAs specifying envelope proteins. 18S ribosomal RNA (rRNA) served as loading controls); (FIG. 4B) HBV core protein was determined by Western blot assay using total cell lysate (β-actin served as a loading control); the amounts of HBV capsids (FIG. 4C) and capsid-associated HBV DNA (FIG. 4D) were determined by a native agarose gel assay; and (FIG. 4E) Cytoplasmic HBV core DNA was determined by Southern blot hybridization."}, "[4]": {"test_system": "HBV", "assay": "HBV DNA hydrodynamic mouse model, intrahepatic HBV core DNA", "format": "in vivo, NOD/SCID mice", "details": "single 25 mg/kg intraperitoneal dose, 24 h after treatment", "experimental": "(§1) Ten-week-old female NOD/SCID mice were purchased from Vital River Laboratory Animal Technology Co. Ltd. All experiments were conducted with Institutional Animal Care and Use Committee approval. To establish HBV hydrodynamic model, 13.5 μg of plasmid pTmcsHBV1.3 expressing 1.3mer HBV genome and 4.5 μg of pCMV-SB expressing the Sleeping Beauty transposase were injected through tail vein, according to procedures previously described. To test the efficacy of DMXAA in vivo, 7 days post injection, mice were treated with either DMXAA (in PBS with 7.5% sodium Bicarbonate) at 25 mg/kg or vehicle, via intraperitoneal injection. Mice were sacrificed 24 h after treatment. Intrahepatic HBV core DNA was extracted and quantified by using a real-time PCR assay. Intrahepatic total RNA was extracted and the interferon stimulated genes (ISGs) OAS1b and viperin mRNAs were determined by real-time RT-PCR assay. Weight of individual mouse was monitored before and 24 h after the treatment.\n(§2) To further validate the antiviral effects of DMXAA in vivo, NOD/SCID mice were hydrodynamically injected with HBV 1.3mer plasmid to establish HBV replication in hepatocytes. […] (FIG. 9A) Twenty-four hours post treatment, HBV core DNA was extracted from livers and analyzed by a real-time PCR assay. […] (FIGS. 9B and 9C) Total RNA was extracted from livers and mRNA levels of OAS1b and viperin were analyzed by real-time RT-PCR assay. […]"}, "[5]": {"test_system": "IFN-β mRNA", "assay": "qRT-PCR of IFN-β mRNA in RAW264.7 cells", "quoted_text": "(§6) For cytokine gene expression analysis, total RNA was extracted using TRIzol reagent. cDNAs were synthesized using SuperScript III (Invitrogen). Quantitative real-time PCR analysis was performed using a LightCycler 480 II (Roche).\n(§7) The amounts of mRNA specifying the specific cytokines and chemokines were quantified by real-time RT-PCR assays. Data (mean±standard deviation, N=3) were expressed as fold induction of gene expression relative to untreated controls."}, "[6]": {"test_system": "HBV DNA in AML12HBV10 cells", "assay": "Blockade of type I IFN receptor (IFNAR1 antibody) in AML12HBV10 cells, HBV DNA by real-time PCR", "format": "cell-based, hepatitis B virus", "details": "AML12HBV10 cells pre-incubated with 10 μg/ml IFNAR1 antibody; mIFN-α directly or conditioned media from DMXAA-treated RAW264.7 cells", "experimental": "AML12HBV10 cells cultured in absence of tetracycline for 1 day, were incubated either with or without 10 μg/ml of a monoclonal antibody against type I interferon receptor IFNAR1 (Ab INFAR) at 37° C. for 1 h, followed by treatment for 2 days with the indicated concentrations of mIFN-α (FIG. 7A) or 50% of conditioned media harvested from RAW264.7 cells (treated with the indicated concentrations of DMXAA for 12 h) (FIG. 7B). Cytolplasmic HBV DNA were quantified by a real-time PCR assay and data (mean±standard deviation, N=4) were presented as percentage of mock-treated controls (NT). AML12HBV10 cells cultured in the absence of tetracycline were treated with the indicated concentrations of IL-1, IL-6 or TNF-α for 4 days (FIG. 7C). Cytoplasmic HBV core DNA was analyzed by Southern blot hybridization."}, "[7]": {"test_system": "proinflammatory cytokines (IL6, IL1, IL10, TNF-α, IL12) and chemokine CXCL10", "assay": "qRT-PCR of proinflammatory cytokine and chemokine mRNA in RAW264.7 cells", "quoted_text": "as §6, §7"}, "[8]": {"assay": "HBV hydrodynamic mouse model, body weight", "format": "in vivo, NOD/SCID mice", "details": "single 25 mg/kg intraperitoneal dose, 24 h; data not shown", "experimental": "as §1"}, "[9]": {"test_system": "TBK1", "assay": "Western blot of TBK1 phosphorylation in RAW264.7 cells", "format": "cell-based, mouse", "details": "125 μM DMXAA", "excerpt": "(§3) Total cellular proteins were fractioned by SDS-PAGE and transferred onto PVDF membranes. Total and phosphorylated STING, TBK1, p38, JNK and Erk as well as IkB-α were detected by Western blot assays with their specific antibodies. β-actin served as a loading control."}, "[10]": {"test_system": "MAPK pathways", "assay": "Western blot of MAPK pathway activation (phosphorylated p38α, JNK, ERK) in RAW264.7 cells", "format": "cell-based, mouse", "excerpt": "as §3"}, "[11]": {"test_system": "interferon stimulated genes (ISGs) OAS1b and viperin", "assay": "HBV hydrodynamic mouse model, intrahepatic ISG mRNA (OAS1b, viperin)", "format": "in vivo, NOD/SCID mice", "details": "single 25 mg/kg intraperitoneal dose, 24 h", "experimental": "as §1, §2"}, "[12]": {"test_system": "HBV DNA in AML12HBV10 cells", "assay": "Conditioned media from shSTING RAW264.7 cells on AML12HBV10 cells, HBV core DNA by real time PCR", "format": "cell-based, hepatitis B virus", "details": "2 days"}, "[13]": {"test_system": "IκBα", "assay": "Western blot of IκBα degradation in RAW264.7 cells", "format": "cell-based, mouse", "details": "125 μM DMXAA", "excerpt": "as §3"}, "[14]": {"test_system": "HBV replication in human hepatoma cells (HepDES19)", "assay": "Conditioned medium from DMXAA-treated THP-1hSTINGS162 cells on DES19 human hepatoma cells, HBV core DNA by real time PCR", "details": "media from THP1-hSTING/S162 cells treated 12 hrs, 6 days", "quoted_text": "Additionally, THP-1hSTINGS162 cells were treated with DMXAA for 12 hrs, conditioned medium with indicated dilution were then transferred to DES19, a human hepatoma cell line harboring HBV replication. HBV core DNA was extracted 6 days post treatment, and quantified by real time PCR assay. HBV DNA expression levels (means±standard deviations, N=3) were expressed as percentage relative to mock treated control. DES19 cells treated with IFN-α served as positive control (FIG. 10B)."}},
  "note": "Entries after “also recorded” stand apart in the source; their conditions may differ.",
  "data": [
    {"molecule": "O=c1cc(-c2ccccc2O)oc2cc(O)ccc12", "note": "[7, 2′-dihydroxyflavone]", "values": [
      {"measurement": "HBV DNA replication, direct treatment", "setting": "[1]", "value": "not direct"},
      {"measurement": "HBV DNA replication, indirect treatment", "setting": "[2]", "value": "indirect, but not direct, antiviral activity against HBV"},
      {"measurement": "HBV DNA replication, indirect treatment", "setting": "[2]; listed as 7, 2′ dihydroxyflavone", "value": "induces antiviral activity against HBV"}
    ]},
    {"molecule": "Cc1ccc2c(=O)c3cccc(CC(=O)O)c3oc2c1C", "note": "[DMXAA, 5,6-dimethylxanthenone-4-acetic acid]", "values": [
      {"measurement": "amounts of HBV DNA replication intermediates", "setting": "[3]", "value": "decreased"},
      {"measurement": "amount of HBV capsid protein", "setting": "[3]", "value": "reduced the amounts of HBV capsid protein"},
      {"measurement": "reduction of intrahepatic HBV core DNA versus vehicle", "setting": "[4]", "value": 1.3, "unit": "log"},
      {"measurement": "time of peak of IFN-β response", "setting": "[5]", "value": 2, "unit": "h"},
      {"measurement": "IFN-β mRNA expression relative to TLR1/2, TLR3 or TLR7 agonists", "setting": "[5]; 125 μM, 2 h post treatment", "value": "approximately 100 fold"},
      {"measurement": "antiviral response after blockade of type I IFN receptor", "setting": "[6]", "value": "significantly attenuated"},
      {"measurement": "time of peak of inflammatory cytokine response (IL-1 and IL-10)", "setting": "[7]", "value": "≥ 6", "unit": "h"},
      {"measurement": "IFN and inflammatory cytokine response profile", "setting": "[7]; qRT-PCR, DMXAA compared with TLR agonists", "value": "predominant IFN response, but less vigorous inflammatory cytokine response"},
      {"measurement": "reduction of average body weight", "setting": "[8]", "value": "approximately 8%"},
      {"measurement": "phosphorylation of TBK1", "setting": "[9]", "value": "efficiently induced phosphorylation of TBK1"},
      {"measurement": "HBV DNA replication, direct treatment", "setting": "[1]", "value": "does not inhibit HBV DNA replication"},
      {"measurement": "time at which activation of MAPK pathways (phosphorylated p38α, JNK, ERK) was evident", "setting": "[10]", "value": 90, "unit": "min"},
      {"measurement": "OAS1b expression in liver", "setting": "[11]", "value": "significantly induced"},
      {"measurement": "viperin expression in liver", "setting": "[11]", "value": "significantly induced"},
      {"measurement": "antiviral activity against HBV with STING knockdown cells", "setting": "[12]", "value": "significantly attenuated"},
      {"measurement": "HBV DNA replication, indirect treatment", "setting": "[2]", "value": "strong indirect anti-HBV activity; also recorded: inhibits HBV DNA replication in the mouse hepatocytes in a dose-dependent manner"},
      {"measurement": "degradation of IκBα", "setting": "[13]", "value": "induced degradation of IκBα"},
      {"measurement": "HBV replication in human hepatoma cells, conditioned media", "setting": "[14]", "value": "efficiently suppressed HBV replication"}
    ]},
    {"molecule": "CCNCc1nc2c(N)nc3ccccc3c2n1CC(C)(C)O", "note": "[gardiquimod]", "values": [
      {"measurement": "HBV DNA replication, direct treatment", "setting": "[1]", "value": "did not apparently inhibit HBV DNA replication"},
      {"measurement": "HBV DNA replication, indirect treatment", "setting": "[2]", "value": "potently inhibited HBV DNA replication"}
    ]},
    {"molecule": "CCN(CC)CCOc1ccc2c(c1)C(=O)c1cc(OCCN(CC)CC)ccc1-2", "note": "[tilorine, 2,7-Bis[2-(diethylamino)ethoxy]-9-fluorenone]", "values": [
      {"measurement": "HBV DNA replication, direct treatment", "setting": "[1]", "value": "neither directly nor indirectly inhibited HBV replication"},
      {"measurement": "HBV DNA replication, indirect treatment", "setting": "[2]", "value": "neither directly nor indirectly inhibited HBV replication"}
    ]},
    {"molecule": "IFN-α", "values": [
      {"measurement": "antiviral response after blockade of type I IFN receptor", "setting": "[6]", "value": "significantly reduced"}
    ]},
    {"molecule": "Pam3CSK4", "values": [
      {"measurement": "amount of HBV capsid protein", "setting": "[3]", "value": "to lesser extents"},
      {"measurement": "HBV DNA replication, direct treatment", "setting": "[1]", "value": "did not apparently inhibit HBV DNA replication"},
      {"measurement": "HBV DNA replication, indirect treatment", "setting": "[2]", "value": "potently inhibited HBV DNA replication"}
    ]},
    {"molecule": "TNF-α", "values": [
      {"measurement": "HBV DNA replication, cytokine treatment", "setting": "[1]", "value": "inhibited HBV DNA replication"}
    ]},
    {"molecule": "poly I:C", "values": [
      {"measurement": "amount of HBV capsid protein", "setting": "[3]", "value": "to lesser extents"},
      {"measurement": "HBV DNA replication, direct treatment", "setting": "[1]", "value": "did not apparently inhibit HBV DNA replication"},
      {"measurement": "HBV DNA replication, indirect treatment", "setting": "[2]", "value": "potently inhibited HBV DNA replication"}
    ]},
    {"molecule": "IL-6: Recombinant murine IL-6 from PBL InterferonSource (protein, UniProt P08505 25-211, looked up) Interleukin-6: FPTSQVRRGDFTEDTTPNRPVYTTSQVGGLITHVLWEIVEMRKELCNGNSDCMNNDDALAENNLKLPEIQRNDGCYQTGYNQEICLLKISSGLLEYHSYLEYMKNNLKDNKKDKARVLQRDTETLIHIFNQEVKDLHKIVLPTPISNALLTDKLESQKEWLRTKTIQFILKSLEEFLKVTLRSTRQT", "values": [
      {"measurement": "HBV DNA replication, cytokine treatment", "setting": "[1]", "value": "only TNF-α inhibited HBV DNA replication"}
    ]}
  ]
}
